By CC50 is commonly meant the concentration that lowers cell viability or growth by half. Read a high CC50 as lower toxicity to the cells.

Like-named read-outs stand apart in the source and are kept apart here.

Assay type in all cases: cell-based
In data set [1] the test system is EVD68. Description: Anti-enterovirus activity, EVD68-RD. Conditions: RD cells.
For data set [2], the system named is influenza virus A/PR/8. Description: microbe, parasite or virus in culture. Conditions: unidentified influenza virus, MDCK, 72 h, read-out: EC50 influenza virus A/PR/8 (PR8-MDCK).
Data set [3] concerns influenza virus A/Hongkong/08/1968. Nature of the data set: microbe, parasite or virus in culture. As to conditions: unidentified influenza virus, MDCK, 72 h, read-out: EC50 influenza virus A/Hongkong/08/1968 (HK68-MDCK).
The test system of data set [4] is Vero cells. Nature of the data set: Cytotoxicity test of the drug, enterovirus example (CellTiter-Glo). Conditions: enterovirus table; cell line not given. Background: In ATP-based viability assays light output follows the ATP content of the culture.
Data set [5] concerns SARS-CoV-2 (nCoV-2019BetaCoV/Wuhan/WIV04/2019 strain). Description: microbe, parasite or virus in culture. Conditions: for inhibition of viral RNA load in the cells: Vero E6, dose-dependent; for EC50: Severe acute respiratory syndrome coronavirus 2, Vero C1008, Vero E6 cells, viral RNA copy number, read-out: EC50 against SARS-CoV-2.
The test system of data set [6] is influenza virus A/California/07/2009. Nature of the data set: microbe, parasite or virus in culture. As to conditions: unidentified influenza virus, MDCK, 72 h, read-out: EC50 influenza virus A/California/07/2009 (CA07-MDCK).
Data set [7] relates to CA16. Description: Anti-enterovirus activity, CA16-RD. Conditions: RD cells.
Data set [8] has as its system influenza virus A/Zhenxing1109/2010. Nature of the data set: microbe, parasite or virus in culture. As to conditions: unidentified influenza virus, MDCK, 72 h, read-out: EC50 influenza virus A/Zhenxing1109/2010 (ZX1109-MDCK).
Data set [9] has as its system Vero E6 cells. Description: Cytotoxicity test of drug, CCK-8 kit. Conditions: at below 10 μM, FIG. 1. As to the method:
(§1) (5) Cytotoxicity test of drug
(§2) The detection of the drug cytotoxicity was performed using CCK-8 kit (Beoytime). Specific steps were as follows:
(§3) 1) 1×104 Vero E6 (ATCC) cells were placed in a 96-well plate and incubated at 37° C. for 8 hours.
(§4) 2) The drug was diluted with DMSO to an appropriate concentration of mother liquor, and then diluted with MEM medium (purchased from Gibco, Catalog No. 10370021) containing 2% FBS (purchased from Gibco, Catalog No. 16000044) to the same concentration as that for the drug treatment. The original medium in the 96-well plate was discarded, 100 μL of drug-containing MEM medium was added to the cells, and three replicate wells were prepared for each concentration. Vehicle control (DMSO and medium were added to the cell wells, without adding drug) and blank control (DMSO and medium were added to the wells, without cells) were set up. After the drug was added, the cells were cultured at 37° C. for 48 hours.
(§5) 3) 20 μL of CCK-8 solution (Beoytime) was added to the well to be tested, mixed gently, without generating bubbles, and continuously incubated at 37° C. for 2 hours. OD450 was read on a microplate reader (purchased from Molecular Devices, Model:SpectraMax M5), and cell viability was calculated:
(§6) Cell activity(%)=(A(drug treatment group)−A(blank control))/(A(vehicle control)−A(blank control))×100%
(§7) wherein A was the reading of the microplate reader.
(In general: Tetrazolium assays rely on reduction of a dye to a coloured formazan, in cell work by metabolically active cells.)

Data set [10] is described as follows: Cytotoxicity test of drug, CCK-8 kit. Conditions: African green monkey; Vero E6 cells; CCK-8; 48 hours. How it is done:
as §1, §2, §3, §4, §5, §6, §7

Data set [11] in a line: Cytotoxicity test of the drug on MDCK (CellTiter-Glo). Conditions: dog, MDCK cells. How it is done:
(2) Cytotoxicity test of the drug
1) MDCK cell (purchased from ATCC, Catalog:CCL-34) was inoculated into a 96-well plate at a concentration of 1.5×10^4 cell/well, wherein the medium is DMEM (purchased from Gibco, Catalog No.: 11995065) containing 10% FBS (purchased from Gibco, Catalog No.: 16000044), and cultured for 24 hrs at 37° C. in a CO2 incubator.
2) Before the experiment, the cells were wahsed 3 times with PBS (purchased from Gibco, Catalog No.: 10010049), 150 μL of D/F-12 medium (purchased from Gibco, Catalog No.: 11330032) containing 2 μg/mL TPCK (purchased from Sigma, Catalog No.:T1426) was added. […]
3) Buffer and substrate of CellTiter-Glo® Luminescent Cell Viability Assay Kit (purchased from Promega, Catalog No.:G7573) were mixed in dark as the work solution. […] After stabilizing the signal in dark for 5 min, chemiluminescence was determined by an enzyme-labeled instrument (purchased from Molecular Devices, SpectraMax M5), the plate reading program was the CellTiter-Glo preset program, and the cytotoxicity was calculated: […]
(§8) wherein A was the reads from the enzyme-labeled instrument.

For data set [12], the system named is enterovirus strain CB3. Description: Anti-enterovirus activity in Vero cells (CellTiter-Glo). How it is done:
(1) Evaluation of anti-enterovirus activity of the drug
1) Vero cells (purchased from ATCC, Catalog No.:CCL-81) were inoculated into a 96 wells plate at a concentration of 1×10^4 cells/well, wherein the medium is DMEM (purchased from Gibco, Catalog No.: 11995065) containing 2% FBS (purchased from Gibco, Catalog No.: 16000044), and cultured for 24 hrs at 37° C. in a CO2 incubator.
2) Before the experiment, the cells were wahsed 3 times with PBS (purchased from Gibco, Catalog No.: 10010049), 100 μL of DMEM medium (purchased from Gibco, Catalog No.:11995065) containing 2% FBS (purchased from Gibco, Catalog No.: 16000044) was added. […] Finally, 50 μL of the enterovirus strain CB3 (preserved in Academy of Military Medical Sciences) diluted with DMEM medium containing 2% FBS was added to reach 100 TCID50 for each well. […]
3) Buffer and substrate of CellTiter-Glo® Luminescent Cell Viability Assay Kit (purchased from Promega, Catalog No.:G7573) were mixed in dark as the work solution. […] After stablizing the signal in dark for 3 min, chemiluminescence was determined by an enzyme-labeled instrument (purchased from Molecular Devices, SpectraMax M5), the plate reading program was the CellTiter-Glo preset program, and the cell viability was calculated: […]
as §8

Data set [13] has as its system zika virus strain SZ-SMGC-01. Nature of the data set: Anti-zika virus activity in BHK or Vero cells (CellTiter-Glo). As to conditions: preliminary test results. How it is done: (1) Evaluation of anti-zika virus activity of the drug
1) BHK cells (preserved in Academy of Military Medical Sciences) or Vero cells (preserved in Academy of Military Medical Sciences) were inoculated into a 96 wells plate at a concentration of 5×10^3 cells/well for BHK cells and 1×10^4 cells/well for Vero cells, wherein the medium is DMEM (purchased from Gibco, Catalog No.: 11995065) containing 10% FBS (purchased from Gibco, Catalog No.: 16000044), and cultured for 24 hrs at 37° C. in a CO2 incubator.
2) The culture medium in the 96-well plate was discarded, 100 μL of DMEM medium (purchased from Gibco, Catalog No.:11995065) containing 2% FBS (purchased from Gibco, Catalog No.: 16000044) was added. […] Finally, 50 μL of the zika virus strain SZ-SMGC-01 (preserved in Academy of Military Medical Sciences) diluted with DMEM medium containing 2% FBS was added to reach 100 TCID50 for each well. […]
3) Buffer and substrate of CellTiter-Glo® Luminescent Cell Viability Assay Kit (purchased from Promega, Catalog No.:G7573) were mixed in dark as the work solution. […] After stabilizing the signal in dark for 2 min, chemiluminescence was determined by an enzyme-labeled instrument (purchased from Molecular Devices, SpectraMax M5), the plate reading program was the CellTiter-Glo preset program, and the cell viability was calculated: […]
as §8

In data set [14] the test system is bunya virus. Conditions: preliminary test results; Huh7 cells.
Data set [15] concerns EV71. Nature of the data set: Anti-enterovirus activity, EV71-RD. Conditions: Enterovirus A, RD cells.
The subject of data set [16] is CA6. Nature of the data set: Anti-enterovirus activity, CA6-RD. Conditions: RD cells.
The subject of data set [17] is influenza virus B/Lee/40. Nature of the data set: microbe, parasite or virus in culture. As to conditions: unidentified influenza virus, MDCK, 72 h, read-out: EC50 influenza virus B/Lee/40 (Blee-MDCK).

With `CCn1c(CO)nn(-c2cc(O[C@@H](C)C(F)(F)F)c(C(=O)Nc3c(F)cccc3Cl)cc2F)c1=O` [BAY 2402234], the EC50 in [1] is more than 100 µM; in data set [2], 0.01 ± 0.0003 µM; in data set [3], 0.007 µM; in [5] (24 hours after the infection), 0.007 µM; in data set [5] (48 hours after the infection) it was 0.0027 µM; in [6] it was 0.03 ± 0.009 µM. Also, the EC50 in [7] is more than 100 µM; in [8] it was 0.04 µM; in [12] (Enterovirus, 120 h, Vero cells, 5 days), less than 0.05 µM; in data set [15] it was more than 100 µM; in data set [16], more than 100 µM; in data set [17] it was 0.03 µM. The same compound registered a CC50 in [4] of more than 300 µM. Also, the “inhibition of viral RNA load in the cells” value was “can inhibit the viral RNA load” in data set [5] (24 h after infection by SARS-CoV-2, FIG. 1(a)) and “can inhibit the viral RNA load” in [5] (48 h after infection by SARS-CoV-2, FIG. 1(b)). Moreover, the “inhibition of replication of the SARS-CoV-2 virus genome in the infected supernatant” value in data set [5] (at 10 μM, 3.3 μM, 1.1 μM, 0.3 μM, 0.1 μM and 0.03 μM, FIG. 1) is “could effectively inhibit the replication”. Moreover, in data set [9], the “effect on cell viability (cytotoxicity)” value is listed as “did not change the cell viability”. In data set [10], this compound returned a CC50 at 48 h of 199 µM. The compound further returned a CC50 at 72 h in data set [11] of 0.27 µM. The “inhibitory effect on enterovirus” value in [12] (preliminary test results) is recorded as “had inhibitory effect”. For the same compound, the “inhibitory effect on zika virus” value in [13] is listed as “had inhibitory effect”. Besides, in data set [14], the “inhibitory effect on bunya virus” value is reported as “had inhibitory effect”.

Values taken from patent US20220193039A1, “APPLICATION OF 2,4,5-TRISUBSTITUTED 1,2,4-TRIAZOLONES IN ANTIVIRAL THERAPY” (priority 2020, published 2022).
